In paper PMC6627609, “Targeting Quorum Sensing: High-Throughput Screening to Identify Novel LsrK Inhibitors” (International Journal of Molecular Sciences, 2019):
Structures can show the parent of a compound that is named as a salt. Where two headings read alike, the source gives them in different places.

Legend:
rat = settings: cited from earlier work
LsrK = LsrK (Salmonella typhimurium, UniProt Q8ZKQ6); assay: biochemical; type: biochemical, S. typhimurium; settings: for Inhibition (%): 50 µM
His-LsrK = His-LsrK (Salmonella typhimurium, UniProt Q8ZKQ6); assay: Thermal shift assay; type: binding, S. typhimurium; settings: 10 µM, mean ± 95% CI
Sequence of His-LsrK (Q8ZKQ6 whole entry): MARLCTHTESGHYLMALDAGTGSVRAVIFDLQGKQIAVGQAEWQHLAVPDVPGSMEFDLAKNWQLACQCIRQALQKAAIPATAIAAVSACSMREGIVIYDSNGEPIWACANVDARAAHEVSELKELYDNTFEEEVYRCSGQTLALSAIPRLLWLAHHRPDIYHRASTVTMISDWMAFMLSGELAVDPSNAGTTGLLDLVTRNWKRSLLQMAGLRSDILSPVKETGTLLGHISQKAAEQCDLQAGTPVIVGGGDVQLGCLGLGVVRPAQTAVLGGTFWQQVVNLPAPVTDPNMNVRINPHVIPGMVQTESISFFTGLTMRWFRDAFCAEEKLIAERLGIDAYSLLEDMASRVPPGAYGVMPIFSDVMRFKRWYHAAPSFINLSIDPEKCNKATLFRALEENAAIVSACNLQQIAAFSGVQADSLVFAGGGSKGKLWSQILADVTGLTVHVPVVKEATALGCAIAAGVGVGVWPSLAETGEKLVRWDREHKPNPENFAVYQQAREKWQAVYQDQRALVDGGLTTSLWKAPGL
Procedure: Compounds were added to qPCR plates by Echo acoustic dispenser with a DMSO backfill to maintain a constant final concentration of DMSO in each well (the assay is tolerant up to 8% DMSO with no effect on Tm of LsrK). LsrK protein was added at a concentration of 1 µg per well in a volume of 10 µL with 1× Thermo thermal shift dye or 5× Sypro Orange dye (used for aurin tricarboxylic acid as this compound fluoresces with Thermo dye in 25 mM TEA, 200 µM MgCl2, pH 7.1). Appropriate DMSO-only negative controls and 1 mM ATP/DMSO positive controls were included in each test occasion. Using an Applied Biosystems Quant Studio 5 qPCR machine (Thermo Fisher Scientific, Waltham, MA, USA) the following thermal shift protocol was used: step 1—hold at 25 °C for 1 min; step 2—heat at 0.05 °C/s dissociation then hold at 99 °C for 1 min. Filter setting for Thermo dye: Ex/Em 580/623 nm and for Sypro Orange dye: Ex/Em 470/520 nm.

mouse = settings: ref MicroSource annotations, cited from earlier work
[1] = po, ref MicroSource annotations

Sequence of LsrK (Q8ZKQ6 whole entry): as above

SMILES | inhibition at 50 µM (LsrK) [%] | further results
CC(C)=CCC[C@]1(C)C=Cc2c(O)c3c(c(CC=C(C)C)c2O1)O[C@]12C(=C[C@@H]4C[C@H]1C(C)(C)O[C@@]2(C/C=C(/C)C(=O)O)C4=O)C3=O [GAMBOGIC ACID] | 89 | LD50 (rat; ip, ref MicroSource annotations): 88 mg/kg
C=C1CC[C@H](O)C/C1=C/C=C1\CCC[C@]2(C)[C@@H]([C@H](C)/C=C/[C@H](C)C(C)C)CC[C@@H]12 [ERGOCALCIFEROL] | 56 | LD50 (rat; in vivo, po): 56 mg/kg
CCCCCCCCCCCCCCCCC(C(=O)O)C(O)(CC(=O)O)C(=O)O (stereo not shown) [AGARIC ACID] | 157 | shift in the Tm of His-LsrK (His-LsrK): −4.7 ± 0.70 °C; IC50 (LsrK): 7 µM
CC[C@@H](C)C(=O)O[C@H]1[C@H](O)[C@H]2[C@@H](CN3C[C@@H](C)CC[C@H]3[C@@]2(C)O)[C@@H]2C[C@]34O[C@]5(O)[C@@H](OC(=O)[C@@](C)(O)CC)CC[C@@]3(C)[C@@H]5[C@@H](OC(C)=O)[C@@H](OC(C)=O)[C@H]4[C@@]21O [PROT[…]] | 1 | LD50 (rat; [1]): 5 mg/kg
CN[C@@H]1[C@@H](O[C@H]2O[C@H](CO)[C@@H](N)[C@H](O)[C@H]2O)OC2C[C@@H](N)[C@@H](O[C@H]3[C@H](O)[C@@H](O)[C@H](N)C[C@@H]3N)OC2[C@@H]1O (stereo partly shown) [APRAMYCIN] | 3 | LD50 (mouse; iv): 280 mg/kg
C[C@H](CCC(=O)O)[C@H]1CC[C@H]2[C@@H]3CC[C@@H]4C[C@H](O)CC[C@]4(C)[C@H]3CC[C@]12C [LITHOCHOLIC ACID] | 2 | LD50 (mouse; po): 3900 mg/kg
COc1ccccc1N1CCN(CCCNc2cc(=O)n(C)c(=O)n2C)CC1 [URAPIDIL HYDROCHLORIDE] | 1 | 
CCCCCC(=O)O[C@]1(C(C)=O)CC[C@H]2[C@@H]3CCC4=CC(=O)CC[C@]4(C)[C@H]3CC[C@@]21C [HYDROXYPROGESTERONE CAPROATE] | 3 | 
C=CC(C1=CC(=O)C(OC)=CC1=O)c1ccc(OC)cc1 (stereo not shown) [4.4'-DIMETHOXYDALBERGIONE] |  | Inhibition (%) (LsrK): 98
CC[C@@H](CO)NC(=O)[C@@H]1C=C2c3cccc4[nH]cc(c34)C[C@H]2N(C)C1 [METHYLERGONOVINE MALEATE] | 1 | 
CC(C)[C@@H]1NC(=O)[C@H](C)OC(=O)[C@@H](C(C)C)NC(=O)[C@@H](C(C)C)OC(=O)[C@H](C(C)C)NC(=O)[C@H](C)OC(=O)[C@@H](C(C)C)NC(=O)[C@@H](C(C)C)OC(=O)[C@H](C(C)C)NC(=O)[C@H](C)OC(=O)[C@@H](C(C)C)NC(=O)[C@@H](C(C)C)OC1=O [VALINOMYCIN] | 1 | LD50 (rat; [1]): 4 mg/kg
Oc1c(I)cc(Cl)c2cccnc12 [CLIOQUINOL] | 1 | 
CC(C)Oc1ccc2c(=O)c(-c3ccccc3)coc2c1 [IPRIFLAVONE] | 2 | 
O=C(O)[C@@H](O)[C@](O)(Cc1ccc(O)cc1)C(=O)O [PISCIDIC ACID] | 2 | 
O=C(/C=C/c1ccc(O)cc1)c1ccccc1O [2'.4-DIHYDROXYCHALCONE] |  | Inhibition (%) (LsrK): 58
CC[C@H]1OC(=O)[C@H](C)[C@@H](O[C@H]2C[C@@](C)(OC)[C@@H](O)[C@H](C)O2)[C@H](C)[C@@H](O[C@@H]2O[C@H](C)C[C@H](N(C)C)[C@H]2O)[C@](C)(OC)C[C@@H](C)C(=O)[C@H](C)[C@@H](O)[C@]1(C)O [CLARITHROMYCIN] | 0 | 
CN(C)CCC[C@@]1(c2ccc(F)cc2)OCc2cc(C#N)ccc21 [ESCITALOPRAM OXALATE] | 1 | 
O=C([O-])c1ccccc1-c1c2cc(Br)c(=O)cc-2oc2[c]([Hg+])c([O-])c(Br)cc12.[Na+].[Na+].[OH-] [MERBROMIN] |  | Inhibition (%) (LsrK): 119
Cc1cnc(NC(=O)C2=C(O)c3ccccc3S(=O)(=O)N2C)s1 [MELOXICAM SODIUM] | 0 | 
CCCCCCCCCCCCCCCC[N+](C)(C)C [CETRIMONIUM BROMIDE] | 125 | 

SMILES | inhibition at 50 µM (LsrK) [%] | further results
CN1C[C@H](C(=O)N[C@]2(C)O[C@@]3(O)[C@@H]4CCCN4C(=O)[C@H](Cc4ccccc4)N3C2=O)C=C2c3cccc4[nH]cc(c34)C[C@H]21 [ERGOTAMINE TARTRATE] | 2 | 
O=C(O)c1cc(-c2ccc(F)cc2F)ccc1O [DIFLUNISAL] | 5 | 
CCS(=O)(=O)CCn1c([N+](=O)[O-])cnc1C [TINIDAZOLE] | 1 | 
CCc1cc(Cl)c(OC)c(C(=O)NC[C@@H]2CCCN2CC)c1O.Cl [ETICLOPRIDE HYDROCHLORIDE] |  | Inhibition (%) (LsrK): 2
O=C(O)CCCCC1CCSS1 (stereo not shown) [THIOCTIC ACID] |  | Inhibition (%) (LsrK): 170%
O=C(O)c1cc(O)c(=O)c2c(O)c(O)ccc2c1 [7-DESHYDROXYPYROGALLIN-4-CARBOXYLIC ACID] | 107 | IC50 (LsrK): 7 µM
CCCCS(=N)(=O)CCC(N)C(=O)O [L-BUTHIONINE SULFOXIMINE] |  | Inhibition (%) (LsrK): 20
CNCCCC1c2ccccc2C=Cc2ccccc21.Cl [PROTRYPTYLINE HYDROCHLORIDE] |  | Inhibition (%) (LsrK): 1
COc1ccc(-c2cc(=O)c3c(OC(C)=O)cc(OC(C)=O)cc3o2)cc1 [ACACETIN DIACETATE] | 0 | 
c1ccc2c(Cc3c[nH]c4ccccc34)c[nH]c2c1 [3.3'-DIINDOLYLMETHANE] |  | Inhibition (%) (LsrK): 0
C=C[C@@]1(C)CC(=O)[C@@]2(O)[C@](C)(O1)[C@@H](O)[C@@H](O)C1C(C)(C)CC[C@H](O)[C@@]12C (stereo partly shown) [DESACETYLCOLFORSIN] |  | Inhibition (%) (LsrK): 1
CN1CCCN=C1/C=C/c1cccs1 [PYRANTEL PAMOATE] | 101 | 
CN(C)c1nc(N(C)C)nc(N(C)C)n1 [ALTRETAMINE] | 19 | 
C[n+]1cc2c3c(ccc2c2ccc4cc5c(cc4c21)OCO5)OCO3 [SANGUINARINE SULFATE] | 84 | 
CN(C)/N=N/c1[nH]cnc1C(N)=O [DACARBAZINE] | 3 | 
CC(=O)Nc1ccc(S(=O)(=O)Nc2ccc([N+](=O)[O-])cc2)cc1 | 1 | 
O=c1cccc2ccc(O)c(O)c2c1O [PYROGALLIN] |  | Inhibition (%) (LsrK): 101
O=C1NC(=O)C(=O)C(=O)N1 [ALLOXAN] | 18 | 
C1N2CN3CN1CN(C2)C3 [METHENAMINE] | 2 | 
CCCCC(=O)O[C@H]1CC[C@H]2[C@@H]3CCc4cc(O)ccc4[C@H]3CC[C@]12C [ESTRADIOL VALERATE] | 3 | 

SMILES | inhibition at 50 µM (LsrK) [%] | further results
Cc1c(N(C)CS(=O)(=O)[O-])c(=O)n(-c2ccccc2)n1C.[Na+] [DIPYRONE] |  | Inhibition (%) (LsrK): 2
Cc1ccsc1/C=C/C1=NCCCN1C [MORANTEL CITRATE] | 0 | 
CC(=O)O[C@H]1[C@H]2[C@@H](OC(=O)Cc3ccccc3)[C@@H](C)C[C@]2(OC(C)=O)C(=O)/C(C)=C/[C@@H]2[C@H](CC[C@@]13CO3)C2(C)C [EUPHORBIASTEROID] |  | Inhibition (%) (LsrK): 1
OC(CCN1CCCCC1)(c1ccccc1)c1ccccc1 [PRIDINOL METHANESULFONATE] | 1 | 
COc1ccc(/C=C/C(=O)c2ccc(O)cc2O)cc1 [2'.4'-DIHYDROXY-4-METHOXYCHALCONE] |  | Inhibition (%) (LsrK): 2
Cc1c(C)c2c(c(C)c1O)CCC(C)(C(=O)O)O2 (stereo not shown) [TROLOX] | 0 | 
COc1cc(NS(C)(=O)=O)ccc1Nc1c2ccccc2nc2ccccc12 [AMSACRINE] | 1 | 
Cc1cc2c(C(C)C)c(O)c(O)c(C=O)c2c(O)c1-c1c(C)cc2c(C(C)C)c(O)c(O)c(C=O)c2c1O [GOSSYPOL] | 83 | 
C=CC[C@]1(O)CC[C@H]2[C@@H]3CCC4=CC(=O)CCC4=C3C=C[C@@]21C [ALTRENOGEST] | 0 | 
CN1CCCN=C1/C=C/c1cccc(O)c1.O=C(O)c1cc2ccccc2c(Cc2c(O)c(C(=O)O)cc3ccccc23)c1O [OXANTEL PAMOATE] |  | Inhibition (%) (LsrK): 6
CCC(C)C(=O)O[C@@H]1C[C@@]2(C)[C@H](c3ccoc3)OC(=O)CC23OC2(C)OC34[C@H](OC(=O)C(C)C)[C@@]3(O)[C@@H](OC(=O)C5(C)OC5C)[C@@]5(C)C[C@]3(O)[C@@](C)([C@H]5CC(=O)OC)C14O2 (stereo partly shown) [ENTANDROPHRAGMIN] |  | Inhibition (%) (LsrK): 1
CC(=O)OCC(=O)[C@@]12OC3(CCCC3)O[C@@H]1C[C@H]1[C@@H]3CCC4=CC(=O)C=C[C@]4(C)[C@@]3(F)[C@@H](O)C[C@@]12C [AMCINONIDE] | 1 | 
CC(C)/N=c1\cc2n(-c3ccc(Cl)cc3)c3ccccc3nc-2cc1Nc1ccc(Cl)cc1 [CLOFAZIMINE] | 0 | 
CCC(C)C(=O)O[C@@H]1C[C@@]2(C)[C@H](c3ccoc3)OC(=O)CC23OC2(C)O[C@]14[C@]1(C)[C@@H](CC(=O)OC)C5(C)CC1(O)[C@](O)(C5OC(=O)C1(C)OC1C)[C@@H](OC(C)=O)[C@]34O2 (stereo partly shown) [UTILIN] | 1 | 
Cc1ncc([N+](=O)[O-])n1CCO [METRONIDAZOLE] | 0 | 
C[C@H]1O[C@@H](n2cc(F)c(=O)[nH]c2=O)[C@H](O)[C@@H]1O [DOXIFLURIDINE] | 1 | 
CCC(NC(C)C)C(O)c1ccc(O)c(O)c1 (stereo not shown) [ISOETHARINE MESYLATE] | 2 | 
O=c1c2ccccc2oc2ccccc12 [XANTHONE] | 1 | 
NCC(=O)c1ccccc1 [PHENACYLAMINE HYDROCHLORIDE] | 1 | 
COc1ccc(/C=C/C(=O)c2cc(O)ccc2O)cc1 [2'.5'-DIHYDROXY-4-METHOXYCHALCONE] |  | Inhibition (%) (LsrK): 102; IC50 (LsrK; read-out: IC50 against LsrK): > 50 µM
